Series [1] has as its system IDO1. Further details: method as in doi:10.1200/JCO.2019.37.7_suppl.358. As to conditions: once-daily oral dosing; cited from earlier work.
A further series addresses GL-261-mTDO (Mus musculus, UniProt P48776). The experiment in a line: cell-based assay, Trp-catabolizing activity in GL-261-mTDO cells. As to conditions: read-out: inhibition GL-261-mTDO.
The target of a further series is T1, human TDO (Homo sapiens, UniProt P48775).
T1 construct: hexahistidine (C); made in house; host or cells: Escherichia coli
Description: human TDO biochemical assay (NFK GreenScreen). On the procedure:
(§1) Full-length recombinant human and mouse IDO1 were expressed in Escherichia coli with a hexahistidine tag at the N-terminus, and purified by affinity chromatography to > 95% purity, as described ([8]). Human and mouse TDO containing a C-terminal hexahistidine tag were analogously expressed and purified to > 95% purity ([8]). The inhibitory activity of compounds was determined with the NFK GreenScreen assay technology under the conditions as described ([8]), except for the reaction buffer for IDO1, which was replaced by 50 mM NaH2PO4, pH 7.0, supplemented with 0.01% Tween-20 and 1% glycerol. Inhibition of the CYP3A4 and CYP2D6 enzymes was determined with the P450-Glo™ Screening System with Luciferin-IPA (Promega, #V9920 and V9890). For determination of IC50 values, the effect of inhibitors was determined in 10-point duplicate dose-response curves. Graphs were fitted to a four-parameter logistics equation in XLfit (ID Business Solutions, Ltd., Guildford, UK) from which IC50 values were calculated.

The test system of series [2] is CT26 cells implanted subcutaneously into female BALB/c mice. The experiment in a line: CT26 mouse model, second study (Charles River). It counts as in vivo. Here is the method:
For the second study, performed at Charles River Laboratories, 3 × 10^5 CT26 cells were implanted subcutaneously into female BALB/c mice on day 0. […] Tumor growth was monitored using caliper measurement 3 times weekly. A tumor volume of 2000 mm^3 was used as the endpoint of the experiment for the individual animals. Tumors were sampled 2 h post last dose.
(§2) Tissues were homogenized in PBS at a ratio of 1 mg per 10 μl using micro pellet pestles mounted on a Micro-Tube Homogenizer System (Thomas Scientific). After centrifugation, proteins were removed from the homogenized tissue supernatants and plasma samples by precipitation with methanol. The concentrations of inhibitor, Trp and Kyn were determined by LC-MS/MS.

In series [3] the test system is unstimulated adherent cell samples isolated from ascites of ovarian cancer patients. Description: Trp-catabolizing activity in unstimulated ascites cell samples. It counts as cell-based, human. As to conditions: for IC50: Homo sapiens. Here is the method:
(§3) Ascites was collected from patients with a primary diagnosis of advanced epithelial ovarian cancer during paracentesis for diagnostics or symptom relieve, or during primary debulking surgery. Ascites was filtered and cells were collected by centrifugation as described ([23]). To enrich for tumor cells, ascites cell samples were allowed to adhere overnight to tissue culture plastic. The cell samples were then cultured for 2–3 weeks in advanced RPMI medium (ThermoFisher), supplemented with 10% FBS, 1% glutamax and 1% P/S, with 2 or 3 times passaging of the cells. qPCR analyses of the MUC16, HE4, IDO1, and TDO2 genes were performed for all samples as described above. Five samples which could be cultured over multiple passages were analyzed for cell surface expression of mucin-16 and EpCAM by flow cytometry using FITC-conjugated anti-mucin-16 (AssayPro, #32189-05141) and APC-conjugated anti-EpCAM (Miltenyi, #130-111-117, RRID: AB_2657496) to assure that the cell cultures consisted of malignant cells. IDO1 mRNA and protein levels in these samples were analyzed as described above after incubation with or without 200 ng/ml IFNγ for 24 h. The collection of ascites and the research described was conducted with approval of the medical ethical committee of the Radboud university medical center and informed written consent from each subject.

Series [4] has as its system B16F10-mIDO1 subline j19 in female B6D2F1 mice. The experiment in a line: B16F10-mIDO1 syngeneic mouse model, intervention study. It counts as in vivo. As to conditions: 100 mg/kg p.o. b.i.d. from day 3. The text has this: For development of the mIDO1-overexpressing B16F10 mouse model, performed at Charles River Laboratories, female B6D2F1 mice were implanted subcutaneously with 1 × 10^6 parental B16F10 cells or B16F10-mIDO1 cells (subline i6 or j19) on day 0 with n = 10 mice per group. A tumor volume of 2000 mm^3 was used as the endpoint of the experiment for the individual animals. To determine the optimal inoculation cell concentration, mice were implanted with 3 × 10^5, 1 × 10^5 or 3 × 10^4 parental or mIDO1-overexpressing B16F10 cells (subline j19) with n = 5 mice per group. The same endpoint of the experiment was used as described above. […] For the intervention study, 3 x 10^5 cells of the B16F10-mIDO1 subline j19 were implanted on day 0, and treatment was started on day 3 with vehicle (DMSO, Kolliphor, 5% mannitol; […]. Four animals were excluded from analysis due to non-treatment-related deaths. Tumors and plasma were sampled 2 h post last dose.
[…]. After centrifugation, proteins were removed from the homogenized tissue supernatants and plasma samples by precipitation with methanol. The concentrations of inhibitor, Trp and Kyn were determined by LC-MS/MS.

The next series concerns the target T2, SW48 (hTDO) (Homo sapiens, UniProt P48775).
T2 construct: host or cells: SW48 cells
Description: cell-based assay, Trp-catabolizing activity in SW48 cells. As to conditions: Trp-catabolizing activity.

Series [5] relates to CT26 cells implanted subcutaneously into female BALB/c mice. Description: CT26 mouse model, first study (ProQinase). It counts as in vivo. Particulars: 50 mg/kg NTRC 3748-0 b.i.d., 100 mg/kg epacadostat q.d. Here is the method:
For the first CT26 mouse model study, performed at ProQinase, 5 × 10^5 CT26 cells were implanted subcutaneously into female BALB/c mice on day 0. […] Tumor growth was monitored using caliper measurement 2 times weekly. The study was terminated at day 22 based on the tumor burden. Tumors and plasma were sampled 2 h post last dose.
as §2

Series [6] relates to IDO1. As to conditions: cited from earlier work.
Series [7] deals with cell lines used in this study. The experiment in a line: cell viability assays (ATPlite 1Step). Particulars: in parallel with the cell-based assays.
In series [8] the test system is IDO1. As to conditions: cited from earlier work. The source holds these as a separate data set.
A further series deals with T3, mTDO (Mus musculus, UniProt P48776).
T3 construct: hexahistidine (C); made in house; host or cells: Escherichia coli
Description: mouse TDO biochemical assay (NFK GreenScreen). On the procedure: as §1

Series [9] concerns IFNγ-stimulated adherent cell samples isolated from ascites of ovarian cancer patients. The experiment in a line: Trp-catabolizing activity in IFNγ-stimulated ascites cell samples. As to conditions: Homo sapiens. It counts as cell-based. Here is the method: as §3
Series [10] relates to CD8-positive T cells co-cultured with HEK-hIDO1 cells. Description: co-culture assay of HEK-hIDO1 cells with PBMCs, CFSE proliferation. It counts as cell-based, human. As to conditions: 7.5 µM Trp; 10 µM NTRC 3883-0, 1 µM epacadostat; 5 days.
The subject of a further series is melanoma patients. Particulars: combination with pembrolizumab; cited from earlier work.
Another series concerns the target HEK-hTDO (Homo sapiens, UniProt P48775). The experiment in a line: cell-based assay, Trp-catabolizing activity in HEK-hTDO cells.

The structures appear in SMILES notation. Like-named read-outs stand apart in the source and are kept apart here.

Sequence of HEK-hTDO (P48775 whole entry): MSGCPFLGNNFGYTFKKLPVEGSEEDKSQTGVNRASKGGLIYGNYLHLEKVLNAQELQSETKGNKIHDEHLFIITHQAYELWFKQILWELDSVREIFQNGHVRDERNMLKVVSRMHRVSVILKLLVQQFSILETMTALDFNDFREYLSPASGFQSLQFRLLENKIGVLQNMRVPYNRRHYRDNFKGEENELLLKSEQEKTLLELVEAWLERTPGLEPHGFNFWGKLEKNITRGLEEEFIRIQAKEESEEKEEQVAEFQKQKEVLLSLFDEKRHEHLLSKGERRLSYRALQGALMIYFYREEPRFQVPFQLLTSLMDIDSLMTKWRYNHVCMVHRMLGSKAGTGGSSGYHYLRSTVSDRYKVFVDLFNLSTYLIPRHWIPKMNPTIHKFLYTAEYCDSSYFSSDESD
Sequence of GL-261-mTDO (P48776 whole entry): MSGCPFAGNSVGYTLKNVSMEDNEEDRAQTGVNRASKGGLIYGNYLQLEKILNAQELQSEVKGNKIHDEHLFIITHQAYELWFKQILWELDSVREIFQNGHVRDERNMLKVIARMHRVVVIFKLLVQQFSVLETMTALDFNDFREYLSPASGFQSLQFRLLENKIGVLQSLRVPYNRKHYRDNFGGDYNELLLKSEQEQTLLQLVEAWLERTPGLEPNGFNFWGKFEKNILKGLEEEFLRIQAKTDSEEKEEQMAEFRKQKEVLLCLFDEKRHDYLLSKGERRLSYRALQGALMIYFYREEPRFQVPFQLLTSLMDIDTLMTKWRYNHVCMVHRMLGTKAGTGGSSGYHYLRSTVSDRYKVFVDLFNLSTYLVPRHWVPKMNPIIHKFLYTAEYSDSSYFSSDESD
T3 sequence (P48776 whole entry): as above
T2 sequence (P48775 whole entry): as the sequence (P48775 whole entry) above
T1 sequence (P48775 whole entry): as above

Turning to `C[C@@H](C(=O)Nc1ccc(Cl)cc1)[C@H]1CC[C@@H](c2ccnc3ccc(F)cc32)CC1` [Linrodostat, linrodostat], the “safety and target coverage” value with IDO1 [1] was “safety and good target coverage”.
Turning to `NS(=O)(=O)NCCNc1nonc1C(=NO)Nc1ccc(F)c(Br)c1` [epacadostat, reference compound], the inhibition at 31.6 µM on GL-261-mTDO was found to be 28%. Further, the IC50 against human TDO was 54 nM; in series [3] (mean of samples, read-out: IC50 Mean), 7730 nM; in series [3] (read-out: IC50 ASC 010), 9640 nM; in [3] (read-out: IC50 ASC 013), 9940 nM; in series [3] (read-out: IC50 ASC 031), 8630 nM; in series [3] (read-out: IC50 ASC 041), 4310 nM. Also, the IC50 against SW48 (hTDO) was 6460 nM; at mTDO, 225 nM; in series [9] (IFNγ-stimulated samples, read-out: IC50) it was 8.3 nM; in [9] (IFNγ-stimulated, read-out: IC50 ASC 009), 3.7 nM; in series [9] (IFNγ-stimulated, read-out: IC50 ASC 010), 9.3 nM; in series [9] (IFNγ-stimulated, read-out: IC50 ASC 013), 9 nM. For the same compound, the IC50 in [9] (IFNγ-stimulated, read-out: IC50 ASC 031) worked out at 7.2 nM; in series [9] (IFNγ-stimulated, read-out: IC50 ASC 041), 7.4 nM; against HEK-hTDO, 24100 nM. In addition, the tumor growth entry is “no inhibition of tumor growth” in series [2] (100 mg/kg p.o. b.i.d. from day 8) and “inhibition of tumor growth” in series [5] (p.o. from day 8). For the same compound, the “Kyn levels in the tumor” value in series [2] (LC-MS/MS, 2 h post last dose, 100 mg/kg p.o. b.i.d.) is listed as “considerable reduction of Kyn levels”; in [5] (LC-MS/MS, 2 h post last dose) it was “considerable reduction of Kyn levels”. In series [3], the “inhibition of basal Trp-catabolizing activity (in words)” value is “no or only minimal inhibition”. Moreover, the “tumor growth corrected for the variation in time until tumor establishment” value in series [4] was “delay in tumor growth”. Also, the “tumor growth in comparison to vehicle-treated animals” value in series [4] was “no effect”. Further, in the series with IDO1 [6], the “clinical benefit of the combination over pembrolizumab plus placebo” value was “no clinical benefit”. In addition, in series [7], the cytotoxicity entry is reported as “not cytotoxic”. In the series on IDO1 [8], the “tolerability in human patients” value was “well tolerated”. Besides, the “effect on IDO1-mediated inhibition of T cell proliferation (in words)” value in series [10] was “relieved the inhibitory effect”. The objective response in the series with melanoma patients was 12 out of 22. Also, on HEK-hTDO (cell-based versus biochemical TDO IC50), the “times lower activity on TDO in the HEK-hTDO assay than in the biochemical assay” value is on record as “more than 400 times”.

These data come from PMC7876453, “Targeting Indoleamine 2,3-Dioxygenase in Cancer Models Using the Novel Small Molecule Inhibitor NTRC 3883-0” (Frontiers in Immunology, 2021).
